47 molecules from patent US20100331297A1, “MODULATION OF PROTEIN TRAFFICKING” (FOLDRX PHARMACEUTICALS, INC., priority 2007, published 2010) can be followed below.

Assay [1] has as its target T1, ΔF508 CFTR (Homo sapiens, UniProt P13569, DEL508-508). In words: Corrector activity, YFP halide (iodide) quenching assay in FRT cells expressing ΔF508 CFTR. It counts as cell-based. On the set-up: expressed in transfected cells; host or cells: Fischer rat thyroid (FRT) cells. Conditions: FRT cells ΔF508 CFTR/YFP, 24 hours with compound at 37° C., forskolin and genistein; read-out: Corrector EC50. The method, boiled down: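 FRT cells co-expressing ΔF508 CFTR and halide-sensitive YFP were incubated 24 h at 37° C with compounds, then stimulated 30 min at 37° C in PBS with forskolin and genistein. Endpoint fluorescence after iodide injection was normalized to initial reading; EC50 from 4-parameter fit with bottom constrained to DMSO control.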

The target in assay [2] is T1, ΔF508 CFTR. In words: Potentiator activity, YFP halide (iodide) quenching assay in FRT cells expressing ΔF508 CFTR, 27° C. pre-incubation. The settings on record: FRT cells ΔF508 CFTR/YFP, 24 hours at 27° C., compound with forskolin 30 min. It counts as cell-based. Also on record: expressed in transfected cells; host or cells: Fischer rat thyroid (FRT) cells. The procedure:
Fisher rat thyroid (FRT) cells stably expressing ΔF508 CFTR and a halide-sensitive variant of yellow fluorescent protein (YFP) were seeded into microtiter plates and allowed to grow for 24 hours at 37° C. and 5% CO2, as described above. The medium was replaced with fresh medium and the cells were incubated for a further 24 hours at 27° C. and 5% CO2 to increase the level of mutant CFTR at the cell surface.
Compounds in DMSO solution were pre-diluted into phosphate-buffered saline solution (PBS) containing forskolin. Activity of CFTR was assayed by removing the medium, washing the cell monolayer with PBS, and then applying the compounds diluted in PBS containing forskolin. After 30 min of incubation at 37° C., the plates were placed in a fluorescence plate reader equipped with a reagent injector. After measuring an initial fluorescence value, iodide-containing buffer was injected and the decrease in fluorescence was followed at excitation and emission wavelengths of 485 and 530 nm, respectively.
Potentiator activity was calculated as follows. Normalized endpoint fluorescence was calculated by dividing the endpoint fluorescence after iodide injection by the initial fluorescence reading and multiplication by 100. Potentiator EC50 values were calculated by the same method as corrector EC50 values.

By EC50 is commonly meant the concentration at which the effect is half-maximal.

T1 sequence (P13569 with tags, fused parts or gaps DEL508-508): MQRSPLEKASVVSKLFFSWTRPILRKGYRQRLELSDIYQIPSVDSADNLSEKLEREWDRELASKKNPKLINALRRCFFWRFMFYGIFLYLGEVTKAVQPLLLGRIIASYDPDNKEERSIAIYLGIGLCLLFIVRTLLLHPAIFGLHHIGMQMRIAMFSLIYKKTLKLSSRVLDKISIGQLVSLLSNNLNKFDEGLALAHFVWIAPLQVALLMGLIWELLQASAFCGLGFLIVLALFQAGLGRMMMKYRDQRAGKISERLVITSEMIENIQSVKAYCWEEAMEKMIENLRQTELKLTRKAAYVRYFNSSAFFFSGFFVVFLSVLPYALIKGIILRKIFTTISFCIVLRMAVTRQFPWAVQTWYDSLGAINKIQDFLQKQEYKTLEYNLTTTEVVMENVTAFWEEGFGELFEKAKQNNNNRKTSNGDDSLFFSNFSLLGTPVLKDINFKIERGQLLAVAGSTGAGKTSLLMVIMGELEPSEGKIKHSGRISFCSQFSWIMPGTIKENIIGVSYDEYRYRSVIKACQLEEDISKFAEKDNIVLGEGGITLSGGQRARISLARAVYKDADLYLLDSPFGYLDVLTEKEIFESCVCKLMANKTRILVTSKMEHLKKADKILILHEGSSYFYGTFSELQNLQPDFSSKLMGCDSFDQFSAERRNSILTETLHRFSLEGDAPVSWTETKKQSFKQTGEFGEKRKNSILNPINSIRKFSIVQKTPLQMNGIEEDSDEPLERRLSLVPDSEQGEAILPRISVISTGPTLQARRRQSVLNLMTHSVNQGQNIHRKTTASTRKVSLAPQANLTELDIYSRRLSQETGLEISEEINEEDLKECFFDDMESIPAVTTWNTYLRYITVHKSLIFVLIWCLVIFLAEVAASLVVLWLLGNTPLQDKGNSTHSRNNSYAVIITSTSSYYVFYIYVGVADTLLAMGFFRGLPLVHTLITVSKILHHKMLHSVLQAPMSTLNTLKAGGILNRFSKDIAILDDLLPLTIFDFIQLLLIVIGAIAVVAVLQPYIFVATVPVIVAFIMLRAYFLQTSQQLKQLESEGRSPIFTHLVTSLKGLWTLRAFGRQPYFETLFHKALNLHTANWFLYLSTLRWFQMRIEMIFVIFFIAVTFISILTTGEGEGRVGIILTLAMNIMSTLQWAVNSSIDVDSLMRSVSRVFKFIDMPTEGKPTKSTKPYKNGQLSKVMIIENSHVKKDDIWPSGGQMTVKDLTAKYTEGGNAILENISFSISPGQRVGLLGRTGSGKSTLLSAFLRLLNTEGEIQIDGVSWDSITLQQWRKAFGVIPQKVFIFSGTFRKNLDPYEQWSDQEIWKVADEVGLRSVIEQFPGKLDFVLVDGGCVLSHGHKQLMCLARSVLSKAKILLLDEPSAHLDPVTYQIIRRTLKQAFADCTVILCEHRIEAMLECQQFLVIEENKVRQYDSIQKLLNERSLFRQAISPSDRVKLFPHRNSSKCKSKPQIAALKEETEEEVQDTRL

For `CC(C)(C)n1nc(Oc2cccc(Oc3ccccc3)c2)c2c(N)ncnc21` [compound 189], the values for the EC50 at ΔF508 CFTR [1] and at ΔF508 CFTR [2] were greater than 15 µM and less than 2 µM, respectively.
With `Nc1ncnc2c1c(-c1ccc(Cl)cc1)cn2CC1CCC1` [compound 262], the concentration for a half-maximal effect (EC50) on ΔF508 CFTR [1] and on ΔF508 CFTR [2] was 2 to 5 µM in each case.
As to `CC(C)(C)n1nc(Oc2cccc3cccnc23)c2c(N)ncnc21` [compound 195], the 50% effective concentration (EC50) was 5 to 10 µM on ΔF508 CFTR [1] and greater than 15 µM at ΔF508 CFTR [2].
For `CC(C)(C)n1nc(Oc2ccc3c(c2)CCC3)c2c(N)ncnc21` [compound 210], in that order: 5 to 10 µM and less than 2 µM.
Consider `Nc1ncnc2c1c(Oc1cccc(Cl)c1)nn2CC1CC1` [compound 278], for which the EC50 was greater than 15 µM at ΔF508 CFTR [1] and less than 2 µM on ΔF508 CFTR [2].
For `CC(C)Cn1nc(-c2ccc(Cl)cc2)c2c(N)ncnc21` [compound 252] the same measures were 2 to 5 µM and 5 to 10 µM.
For `CCn1cc(-c2ccc(Cl)cc2)c2c(NC(=O)NC(C)C)ncnc21` [compound 328] the same measures were greater than 15 µM and greater than 15 µM.
For `CCn1nc(Sc2cccc3ccccc23)c2c(N)ncnc21` [compound 207] the same measures were greater than 15 µM and less than 2 µM.
With `CCn1nc(Sc2ccccc2F)c2c(N)ncnc21` [compound 217], the EC50 at ΔF508 CFTR [1] and at ΔF508 CFTR [2] was greater than 15 µM throughout.
For `Nc1ncnc2c1c(-c1ccc(Cl)cc1)nn2[C@@H]1CCOC1` [compound 307], the concentration for a half-maximal effect (EC50) at ΔF508 CFTR [1] and at ΔF508 CFTR [2] was greater than 15 µM in each case.
Consider `CCn1cc(-c2ccc(Cl)cc2)c2c(NC(=O)c3ccc(F)cc3)ncnc21` [compound 299], for which the EC50 on ΔF508 CFTR [1] is less than 2 µM; at ΔF508 CFTR [2] it was greater than 15 µM.
For `Nc1ncnc2c1c(-c1ccc(Cl)cc1)nn2C1CCNCC1` [compound 412], in that order: greater than 15 µM and greater than 15 µM.
For `CC(C)(C)n1nc(Oc2ccccc2[N+](=O)[O-])c2c(N)ncnc21` [compound 331] the same measures were greater than 15 µM and 2 to 5 µM.
For `CC(C)(C)n1nc(Oc2ccc(F)c(F)c2)c2c(N)ncnc21` [compound 174], in that order: greater than 15 µM and less than 2 µM.
In the case of `Cc1cc(Oc2nn(C(C)(C)C)c3ncnc(N)c23)ccc1F` [compound 179], the results for the EC50 on ΔF508 CFTR [1] and on ΔF508 CFTR [2] were greater than 15 µM and less than 2 µM, respectively.
For `CN1CC(n2nc(-c3ccc(Cl)cc3)c3c(N)ncnc32)C1` [Compound No. 296, 3-(4-Chloro-phenyl)-1-(1-methyl-azetidin-3-yl)-1H-pyrazolo[3,4-d]pyrimidin-4-ylamine] the same measures were greater than 15 µM and greater than 15 µM.
For `CC(C)(C1CC1)n1cc(-c2ccc(Cl)cc2)c2c(N)ncnc21` [compound 351] the same measures were 2 to 5 µM and less than 2 µM.
For `Cc1ccc(Oc2nn(C(C)(C)C)c3ncnc(N)c23)cc1C` [compound 177], in that order: greater than 15 µM and less than 2 µM.
For the molecule `CCn1nc(S(=O)(=O)c2cccc3ccccc23)c2c(N)ncnc21` [compound 212], the half-maximal effective concentration (EC50) at ΔF508 CFTR [1] and on ΔF508 CFTR [2] was greater than 15 µM each time.
Turning to `CC(=O)N1CC(n2nc(-c3ccc(Cl)cc3)c3c(N)ncnc32)C1` [Compound No. 295, 1-{3-[4-Amino-3-(4-chloro-phenyl)-pyrazolo[3,4-d]pyrimidin-1-yl]-azetidin-1-yl}-ethanone], the half-maximal effective concentration (EC50) on ΔF508 CFTR [1] and on ΔF508 CFTR [2] was greater than 15 µM in each case.
Take `Nc1ncnc2c1c(-c1ccc(Cl)cc1)nn2C(=O)Oc1ccccc1` [compound 187]: the concentration for a half-maximal effect (EC50) at ΔF508 CFTR [1] was 5 to 10 µM; on ΔF508 CFTR [2], greater than 15 µM.
For `Nc1ncnc2[nH]nc(Oc3cccc(Cl)c3)c12` [Compound No. 220, 3-(3-Chloro-phenoxy)-1H-pyrazolo[3,4-d]pyrimidin-4-ylamine], in that order: greater than 15 µM and greater than 15 µM.
As for `CC(=O)C1CC(n2nc(Sc3ccccc3)c3c(N)ncnc32)C1` (stereo not shown) [compound 334], the EC50 at ΔF508 CFTR [1] and on ΔF508 CFTR [2] was greater than 15 µM in each case.
Regarding `CCn1nc(Sc2ccccc2Cl)c2c(N)ncnc21` [compound 227], the EC50 at ΔF508 CFTR [1] and on ΔF508 CFTR [2] was greater than 15 µM each time.
For the molecule `CCOC(=O)N1CC(n2nc(Sc3cccc(Cl)c3)c3c(N)ncnc32)C1` [Compound No. 345, 3-[4-Amino-3-(3-chloro-phenylsulfanyl)-pyrazolo[3,4-d]pyrimidin-1-yl]-azetidine-1-carboxylic acid ethyl ester], the EC50 on ΔF508 CFTR [1] was greater than 15 µM; at ΔF508 CFTR [2], 2 to 5 µM.
For `Nc1ncnc2c1c(-c1ccc(Cl)cc1)cn2CC(O)CF` (stereo not shown) [compound 309], in that order: 2 to 5 µM and greater than 15 µM.
As to `CCOC(=O)N1CC(n2nc(Sc3ccccc3)c3c(N)ncnc32)C1` [compound 347], the EC50 at ΔF508 CFTR [1] and on ΔF508 CFTR [2] was greater than 15 µM in each case.
`CC(C)(C)n1nc(Oc2ccc(F)c(Cl)c2)c2c(N)ncnc21` [compound 176]: the results for the EC50 at ΔF508 CFTR [1] and at ΔF508 CFTR [2] were greater than 15 µM and less than 2 µM, respectively.
As for `CC(C)N1CC(n2nc(-c3ccc(Cl)cc3)c3c(N)ncnc32)C1` [Compound No. 304, 3-(4-Chloro-phenyl)-1-(1-isopropyl-azetidin-3-yl)-1H-pyrazolo[3,4-d]pyrimidin-4-ylamine], the half-maximal effective concentration (EC50) on ΔF508 CFTR [1] was 5 to 10 µM; at ΔF508 CFTR [2] it was greater than 15 µM.
For `CC(C)(C)n1cc(-c2ccc(Cl)cc2)c2c(NC(=O)C3CCCC3)ncnc21` [compound 321], in that order: less than 2 µM and less than 2 µM.
For `Nc1ncnc2c1c(-c1ccc(Cl)cc1)nn2-c1nc2ccccc2o1` [compound 277] the same measures were greater than 15 µM and greater than 15 µM.
For `CCn1nc([S+]([O-])c2cc(F)cc(F)c2)c2c(N)ncnc21` (stereo not shown) [compound 283] the same measures were greater than 15 µM and greater than 15 µM.
For `Cc1ccccc1Oc1nn(C(C)(C)C)c2ncnc(N)c12` [compound 185], the EC50 on ΔF508 CFTR [1] was greater than 15 µM; on ΔF508 CFTR [2] it was less than 2 µM.
Consider `CC(C)OC(=O)Nc1ncnc2c1c(-c1ccc(Cl)cc1)nn2C(C)(C)C` [compound 300], for which the EC50 is 5 to 10 µM at ΔF508 CFTR [1] and greater than 15 µM on ΔF508 CFTR [2].
For `CC(C)(C)n1nc(-c2ccc(Cl)cc2)c2c(NC(=O)O[C@H]3CCOC3)ncnc21` [Compound No. 301, [1-tert-Butyl-3-(4-chloro-phenyl)-1H-pyrazolo[3,4-d]pyrimidin-4-yl]-carbamic acid tetrahydro-furan-3-yl ester] the same measures were 5 to 10 µM and less than 2 µM.
For `Nc1ncnc2c1c(-c1ccc(Cl)cc1)nn2C(=O)OCc1ccccc1` [compound 188], in that order: 5 to 10 µM and greater than 15 µM.
Regarding `CCn1cc(-c2ccc(Cl)cc2)c2c(NC(=O)c3ccc(C)cc3)ncnc21` [compound 298], the EC50 is less than 2 µM at ΔF508 CFTR [1] and greater than 15 µM on ΔF508 CFTR [2].
For `Cc1cccc(-c2nn(C(C)(C)C)c3ncnc(N)c23)c1` [compound 104] the same measures were greater than 15 µM and 2 to 5 µM.
For `CCn1nc([S+]([O-])c2cccc(Cl)c2)c2c(N)ncnc21` (stereo not shown) [compound 279] the same measures were greater than 15 µM and greater than 15 µM.
For `CC(C)(C)OC(=O)N1CC(n2nc(Cc3cccc4ccccc34)c3c(N)ncnc32)C1` [Compound No. 297, 3-(4-Amino-3-naphthalen-1-ylmethyl-pyrazolo[3,4-d]pyrimidin-1-yl)-azetidine-1-carboxylic acid tert-butyl ester], in that order: greater than 15 µM and 2 to 5 µM.
`CC(C)(C)n1nc(Oc2cccc(F)c2F)c2c(N)ncnc21` [compound 178]: the EC50 was greater than 15 µM on ΔF508 CFTR [1] and 2 to 5 µM on ΔF508 CFTR [2].
For `CCOC(=O)N1CC(n2nc(-c3ccc(Cl)cc3)c3c(N)ncnc32)C1` [compound 270], the EC50 on ΔF508 CFTR [1] and at ΔF508 CFTR [2] was greater than 15 µM in each case.
Regarding `CC(C)(C)n1nc(-c2ccc(Cl)cc2)c2c(NC(=O)O[C@@H]3CCOC3)ncnc21` [compound 335], the EC50 is 5 to 10 µM on ΔF508 CFTR [1] and greater than 15 µM on ΔF508 CFTR [2].
For `Nc1ncnc2c1c(-c1ccc(Cl)cc1)nn2C1CNC1` [compound 411], in that order: greater than 15 µM and greater than 15 µM.
For `CCn1cc(-c2ccc(Cl)cc2)c2c(NC(=O)C3CCCC3)ncnc21` [compound 350] the same measures were less than 2 µM and greater than 15 µM.
For `CC(=O)N1CC(n2cc(Cc3cccc4ccccc34)c3c(N)ncnc32)C1` [compound 306] the same measures were greater than 15 µM and greater than 15 µM.
As to `CCn1nc(Sc2cc(F)cc(F)c2)c2c(N)ncnc21` [compound 264], the EC50 was greater than 15 µM on ΔF508 CFTR [1] and 2 to 5 µM at ΔF508 CFTR [2].
